Laboratory results taken from patent US20240408073A1, “METHODS FOR TREATING A TRAUMA PATIENT” (Beth Israel Deaconess Medical Center, Inc., priority 2021, published 2024).

How the values were obtained:
PMN [1] = experiment: PMN CTX (chemotaxis) transwell assay; type: cell-based, human
Description: Human PMN were isolated from freshly withdrawn peripheral blood of healthy volunteers, as described previously. In brief, heparinized whole blood (10 U/ml) was centrifuged at 200×g for 10 min. The buffy coat and RBC were layered onto 1-Step Polymorphs (AN221725, Accurate Chemical & Scientific Corp, Carle Place, NY, USA), followed by centrifugation at 500×g for 30 min. The PMN layer was collected and diluted with an equal volume of 0.45% NaCl to restore osmolarity for 5 min at room temperature. The suspensions were then washed in RPMI 1640 and centrifuged at 200×g for 10 min. RBC in pellet were lysed with ice-cold 0.2% NaCl for 20 sec and the same volume of 1.6% NaCl was applied to end lysis. Cells were centrifuged again at 200×g for 10 min to collect PMN. PMN were resuspended in physiological solutions depending on the next functional study.
CTX assay PMN CTX was studied in […]. 1×10^5 PMN in 75 μL of RPMI with 2% heat-inactivated FBS were applied to the upper chamber and 150 μL of the same media containing indicated chemoattractants were applied to the lower chamber. mtDNA application was done at RT, rotating for 15 min. […] Cells were incubated (37° C., 5% CO2) for 60 min. PMN were then collected from the lower chambers, centrifuged (500×g, 5 min, RT) and re-suspended in 200 μL of cell lysis solution (×1/20) with CyQUANT GR dye (×1/400) in water for 15 min at RT (C7026, Thermo Fisher Scientific). PMN numbers were evaluated in 96-well plates using 480 nm excitation and 520 nm emission with known numbers of PMN for standard curve.

HDAC6 = target: T1, HDAC6 (Homo sapiens, UniProt Q9UBN7); experiment: HDAC6 activation
T1 construct: endogenous in cells; host or cells: PMN
T1 sequence (Q9UBN7 1-1215): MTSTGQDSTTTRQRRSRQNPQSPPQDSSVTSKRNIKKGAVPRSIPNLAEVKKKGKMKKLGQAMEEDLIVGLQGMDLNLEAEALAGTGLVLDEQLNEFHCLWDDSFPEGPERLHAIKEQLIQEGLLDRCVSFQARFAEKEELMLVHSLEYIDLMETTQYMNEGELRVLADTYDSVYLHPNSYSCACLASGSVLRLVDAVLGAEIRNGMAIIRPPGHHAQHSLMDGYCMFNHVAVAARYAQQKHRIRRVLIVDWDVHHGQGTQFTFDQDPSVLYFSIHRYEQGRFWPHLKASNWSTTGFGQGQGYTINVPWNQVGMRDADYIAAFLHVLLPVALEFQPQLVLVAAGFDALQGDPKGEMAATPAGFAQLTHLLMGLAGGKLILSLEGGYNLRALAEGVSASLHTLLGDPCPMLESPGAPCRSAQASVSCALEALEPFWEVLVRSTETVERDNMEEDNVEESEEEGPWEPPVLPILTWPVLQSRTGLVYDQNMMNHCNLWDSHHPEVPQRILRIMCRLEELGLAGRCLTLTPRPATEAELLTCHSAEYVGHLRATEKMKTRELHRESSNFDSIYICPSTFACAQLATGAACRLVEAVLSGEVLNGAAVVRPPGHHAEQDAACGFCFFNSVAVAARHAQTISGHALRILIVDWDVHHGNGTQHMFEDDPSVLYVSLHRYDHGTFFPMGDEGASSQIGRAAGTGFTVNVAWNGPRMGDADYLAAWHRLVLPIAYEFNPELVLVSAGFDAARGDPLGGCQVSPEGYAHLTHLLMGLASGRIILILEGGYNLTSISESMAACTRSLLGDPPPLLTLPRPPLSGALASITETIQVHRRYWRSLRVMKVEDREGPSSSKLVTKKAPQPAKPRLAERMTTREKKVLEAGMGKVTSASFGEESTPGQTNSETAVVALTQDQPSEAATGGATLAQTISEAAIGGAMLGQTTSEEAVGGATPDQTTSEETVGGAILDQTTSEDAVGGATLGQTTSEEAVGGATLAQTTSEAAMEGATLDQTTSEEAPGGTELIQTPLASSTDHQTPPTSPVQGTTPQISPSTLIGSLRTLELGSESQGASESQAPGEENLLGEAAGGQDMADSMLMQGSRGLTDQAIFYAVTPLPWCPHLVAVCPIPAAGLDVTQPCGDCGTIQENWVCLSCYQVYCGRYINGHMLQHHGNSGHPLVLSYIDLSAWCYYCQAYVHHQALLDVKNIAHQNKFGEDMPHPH

human PMN [2] = experiment: Bacterial phagocytosis assay by flow cytometry; type: cell-based; conditions: drug 30 min, then mtDNA 15 min; FIG. 4A
human PMN [3] = experiment: Bacterial phagocytosis assay by colony-forming unit (CFU) count; type: cell-based; conditions: drug 30 min, then mtDNA 15 min; for PMN uptake of Sa in co-culture suppressed by mtDNA (PMN lysis/agar plate): FIG. 4B; for Sa killing / clearance of Sa from co-culture media suppressed by mtDNA: FIG. 4C
Description: Before the CFU count of bacteria, Staphylococcus aureus (Sa) were opsonized with autologous serum from the PMN donor. OD600=0.1 were determined as 10^8 CFU/mL according to previous measurements. […] Then, Sa were incubated with PMN at 1:1 ratio in 1 mL 0.9% NaCl supplemented with human serum for 30 min rotating. […] The supernatant was collected separately, centrifuged at 5000×g for 10 min to pellet bacteria. The bacteria were applied on agar plates and after 18 hrs the bacterial colonies were counted.

human PMN [4] = experiment: Actin polymerization assay by rhodamine phalloidin staining; type: cell-based; conditions: FIG. 5
Description: Actin polymerization was studied using an F-Actin Visualization Biochem Kit (Cytoskeleton, Inc., Denver, CO, USA) according to the manufacturer's instructions. Briefly, PMN were applied to glass slides (Thermo Fisher Scientific) pre-coated with 0.1% poly-L-lysine solution ([…], MilliporeSigma) in H2O. Then 200 μL of Fixative solution was added to the slides and incubated for 10 min at RT. After washing with 200 μL of Wash buffer for 30 sec at RT, 200 μL of Permeabilization Buffer was added to the slides and incubated for 5 min at RT. Then, the cells were stained with rhodamine phalloidin for 30 min at RT in dark. The slides were then washed with Wash buffer and Hoechst 33342 (1:1,000 in PBS) was applied to stain nucleus. Followed by 3 times of washing, 20 μL of Mounting medium was added to the center of each slide and a coverslip was put on. Clear nail polish was used to seal coverslips. The actin filaments were observed using AxioImager Epifluorescence Microscope (Zeiss, Jena, Germany) at excitation 535 nm and emission 585 nm.

PMN [5] = experiment: PMN respiratory burst in trauma patient plasma; type: cell-based, human; conditions: FIG. 9E
PMN [6] = experiment: NETosis of PMN incubated with trauma plasma, induced by PMA; type: cell-based, human; conditions: post-treatment 30 min after plasma, FIG. 9F
[7] = test system: Formyl Peptide Receptor-1 (FPR1); experiment: Flow cytometry for surface expression of FPR1 on human PMN; type: cell-based; conditions: FIG. 9G
Description: Finally, PMN were incubated with fluorescein (FITC)-conjugated anti-human FPR1 antibody (FAB3744F, LifeSpan BioSciences Inc., Seattle, WA), phycoerythrin (PE)-conjugated anti-human CXCR2 antibody (FAB331P, LifeSpan BioSciences Inc.), or PE-conjugated anti-human BLT1 antibody (FAB099P, LifeSpan BioSciences Inc.) in the dark for 30 min at room temperature. FITC-conjugated isotype antibody (400210, BioLegend, San Diego, CA) or PE-conjugated isotype antibody (400212, BioLegend) was used as a negative control. Allophycocyanin (APC)—conjugated anti-human CD16 antibody (360705, BioLegend) was used to confirm PMN identification.

[8] = cited from earlier work; for Drug-drug interactions: VAL with PAR, clinical settings; for Bioavailability: both by parenteral and enteral routes
cortactin = experiment: Western blot of acetylated cortactin in PMN; type: cell-based, human; conditions: PAR in conjunction with mtDNA; FIG. 3H
Description: Briefly, PMN samples were dissolved in Pierce RIPA lysis buffer (25 mM Tris HCl pH 7.6, 150 mM NaCl, 1% NP-40, 1% sodium deoxycholate, 0.1% SDS) (Thermo Fisher Scientific, Waltham, MA, USA) containing Halt Protease & Phosphatase Inhibitor Cocktail (Thermo Fisher Scientific) for 20 min on ice, followed by centrifugation at […] for 20 min at 4° C. Then, the supernatant was collected, concentration was measured using a Pierce BCA Protein Assay Kit (Thermo Fisher Scientific). After mixing and boiling (95° C., 10 min) protein lysate with appropriate amount of 6×Laemmli SDS-sample buffer (J61337, Alfa Aesar, Tewksbury, MA, USA) according to the protein concentration, 40 μg of protein lysates were separated by SDS/PAGE and transferred to nitrocellulose membranes contained in an iBlot Transfer Stack kit (IB301002, Thermo Fisher Scientific). […] After being incubated with their appropriate secondary antibodies conjugated with horseradish peroxidase (HRP) the following day, the immunoblot signals were detected by application of the Amersham ECL Prime Western Blotting Detection Reagent kit (Cytiva, Marlborough, MA, USA) in a ChemiDoc Imaging System (Bio-Rad, Hercules, CA, USA). Quantification of blots were performed using Image J v.1.53i (National Institute of Health, Bethesda, MD, USA).

Staphylococcus aureus = experiment: Mouse trauma (laparotomy + liver crush) plus intratracheal Staphylococcus aureus lung infection; type: in vivo, CD-1 mice; conditions: PAR 20 mg/kg
Description: Following 48 hr acclimatization, 8-9 week-old male CD-1 mice (body weight 30-32 g) underwent laparotomy followed by crushing of the left lobe of liver 8 times using a sterile forceps. […] Mice were sacrificed 18 h later and bronchoalveolar lavage (BAL) fluid (BALF) was collected by tracheal irrigation with 1 mL of PBS. The collected BALF was centrifuged; the pellet was diluted to count the number of immune cells; and the supernatant was then separated and applied to agar plates to count the remaining bacteria. Experiments were repeated as noted and data were combined.

[9] = inhibitor 30 min prior to mtDNA, N=6

SMILES	PMN CTX in the presence of mtDNA (PMN [1])	Activation of HDAC6 (HDAC6)	Phagocytosis of SYTO9 labeled Staphylococcus aureus by human PMN suppressed by mtDNA (flow cytometry) (human PMN [2])	PMN uptake of Sa in co-culture suppressed by mtDNA (PMN lysis/agar plate) (human PMN [3])	Sa killing / clearance of Sa from co-culture media suppressed by mtDNA (human PMN [3])	F-actin polymerization response to LTB4 inhibited by mtDNA (human PMN [4])	PMN respiratory burst (RB) suppressed by trauma plasma (PMN [5]; post-treatment)	NET formation (NETosis) suppressed by trauma plasma (PMN [6])	FPR1 surface expression suppressed by ND6 [7]	Drug-drug interactions [8]	Bioavailability [8]	T1/2 of elimination ([8]; human, in vivo)	Suppression of PMN CTX to LTB4 after ND6 exposure (PMN [1]; N=6)	mtDNA-induced suppression of PMN CTX to LTB4 (PMN [1]; [9])	Acetylated cortactin (ac-cortactin) level (cortactin)	Lung bacterial clearance (Sa CFU in BAL, % of uninjured controls) (Staphylococcus aureus; post-treatment i.p. 30 min post-injury, VPA 80 mg/kg, alone or combined)	Lung bacterial clearance (Sa CFU in BAL) (Staphylococcus aureus; pre-treatment i.p. 30 min prior to injury, Sa i.t. 4 h after trauma)	PMN respiratory burst (RB) suppressed by trauma plasma (PMN [5]; pre-treatment)	Suppressive effect of mtDNA on PMN chemotaxis (PMN [1]; FIG. 1B, dependence on endosomal acidification)	mtDNA-induced suppression of PMN CTX to GRO-α (PMN [1]; [9])
CCCC(CCC)C(=O)O [VPA, valproic acid]	rescued	blocks activation of HDAC6	reverse mtDNA-mediated suppressive effects on bacterial phagocytosis and killing	reverse mtDNA-mediated suppressive effects on bacterial phagocytosis and killing	reverse mtDNA-mediated suppressive effects on bacterial phagocytosis and killing	rescued	ineffective	minor reversals	diminish FPR1 regulation by ND6	no drug-drug interactions	excellent	8 to 17 h								
Fc1ccc([C@@H]2CCNC[C@H]2COc2ccc3c(c2)OCO3)cc1 [PAR, paroxetine]			restored phagocytosis	restored phagocytosis	restored Sa killing	rescued	ineffective	minor reversals	diminish FPR1 regulation by ND6	no drug-drug interactions	excellent		rescued	rescued	blocks mtDNA suppression of ac-cortactin	did not confer significant protection	significantly prevented infection	can rescue RB		
CCN(CC)CCCC(C)Nc1ccnc2cc(Cl)ccc12 (stereo not drawn) [CQ, chloroquine]																			blocked	
COC(=O)c1ccc(C=Cc2ccc([N+](=O)[O-])o2)o1 [GRKi, methyl 5-[2-(5-nitro-2-furyl)vinyl]-2-furoate]														rescued						rescued
